Measured values reported in ChEMBL document CHEMBL5357077, “Synthesis and Biological Evaluation of β-Lactam Derivatives Targeting Speckle-Type POZ Protein (SPOP)” (ACS Med Chem Lett, 2024).
Activity calls are given as the source filed them. The rule behind the calls is not given here.

Key:
Speckle-type POZ protein [1] = target: T1, Speckle-type POZ protein (Homo sapiens, UniProt O43791); assay: (§1) Inhibition of GST-tagged human SPOP MATH domain (28 to 166 residues) expressed in Escherichia coli BL21 CodonPlus (DE3)-RIPL cells using FITC-LACDEVTSTTSSSTA peptide as substrate assessed as inhibition of substrate binding to SPOP preincubated with compound for 30 mins followed by substrate addition and measured immediately by fluorescence polarization assay
Speckle-type POZ protein [2] = target: T1, Speckle-type POZ protein; assay: as §1, with “Potency index, ratio of 230D7 IC50 to test compound IC50 for inhibition” for “Inhibition”
Speckle-type POZ protein [3] = target: T1, Speckle-type POZ protein; assay: Binding affinity to GST-tagged human SPOP MATH domain (28 to 166 residues) expressed in Escherichia coli BL21 CodonPlus (DE3)-RIPL cells assessed as equilibrium dissociation constant by SPR analysis
Speckle-type POZ protein [4] = target: T1, Speckle-type POZ protein; assay: Inhibition of GST-tagged human SPOP MATH domain (28 to 166 residues) expressed in Escherichia coli BL21 CodonPlus (DE3)-RIPL cells using Myc-DUSP7 as substrate assessed as disruption of SPOP binding to substrate at 1 to 40 uM incubated for 2 hrs by GST pull-down assay; details: dose 1-40 µM
Speckle-type POZ protein [5] = target: T1, Speckle-type POZ protein; assay: Inhibition of GST-tagged human SPOP MATH domain (28 to 166 residues) expressed in Escherichia coli BL21 CodonPlus (DE3)-RIPL cells using Myc-PTEN as substrate assessed as disruption of SPOP binding to substrate at 1 to 40 uM incubated for 2 hrs by GST pull-down assay; details: dose 1-40 µM
786-0 [6] = assay: Antiproliferative activity against human 786-0 cells assessed as inhibition of cell proliferation measured after 72 hrs by Celltiter Glo luminescent cell viability assay; assay type: functional, cell-based
HK-2 = assay: Cytotoxicity against HK-2 cells assessed as inhibition of cell proliferation measured after 72 hrs by Celltiter Glo luminescent cell viability assay; assay type: toxicity, cell-based; details: human, hk-2, 72 h
OS-RC-2 = assay: Inhibition of colony formation in human OS-RC-2 cells at 0.4 to 50 uM incubated for 10 to 14 days by crystal violet staining based imaging analysis; assay type: functional, cell-based; details: dose 0.4-50 µM, time 10-14 day
786-0 [7] = assay: Inhibition of colony formation in human 786-0 cells at 0.4 to 50 uM incubated for 10 to 14 days by crystal violet staining based imaging analysis; assay type: functional, cell-based; details: dose 0.4-50 µM, time 10-14 day
A498 = assay: Inhibition of colony formation in human A498 cells at 0.4 to 50 uM incubated for 10 to 14 days by crystal violet staining based imaging analysis; assay type: functional, cell-based; details: dose 0.4-50 µM, time 10-14 day
769-P = assay: Inhibition of colony formation in human 769-P cells at 0.4 to 50 uM incubated for 10 to 14 days by crystal violet staining based imaging analysis; assay type: functional, cell-based; details: dose 0.4-50 µM, time 10-14 day

T1 sequence (O43791 whole entry, the tested form may be a part): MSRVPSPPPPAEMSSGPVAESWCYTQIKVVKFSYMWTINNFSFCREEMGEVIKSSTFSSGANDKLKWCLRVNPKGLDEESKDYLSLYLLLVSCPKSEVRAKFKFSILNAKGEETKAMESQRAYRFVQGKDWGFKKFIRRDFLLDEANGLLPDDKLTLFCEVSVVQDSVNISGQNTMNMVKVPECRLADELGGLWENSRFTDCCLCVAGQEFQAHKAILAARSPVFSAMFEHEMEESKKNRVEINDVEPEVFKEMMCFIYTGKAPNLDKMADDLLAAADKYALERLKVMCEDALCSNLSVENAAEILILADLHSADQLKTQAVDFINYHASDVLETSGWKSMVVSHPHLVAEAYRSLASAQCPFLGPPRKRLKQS

Structure (SMILES) | IC50 (Speckle-type POZ protein [1]) [µM] | other results
C=CC1=C(C(=O)O)N2C(=O)[C@@H](NC(=O)c3ccc(COc4cccnc4)o3)[C@H]2SC1 | 74.4 | 
CC1=C(C(=O)O)N2C(=O)[C@@H](NC(=O)c3ccc(COc4ccc(Br)cc4Cl)o3)[C@H]2SC1 | > 100 | 
O=C(O)C1=CCS[C@@H]2[C@H](NC(=O)c3ccc(COc4ccc(Br)cc4Cl)o3)C(=O)N12 | 42.1 | 
C=CC1=C(C(=O)O)N2C(=O)[C@@H](NC(=O)c3ccc(CCl)o3)[C@H]2SC1 | 0.58 | Ratio IC50 (Speckle-type POZ protein [2]): 22; Kd (Speckle-type POZ protein [3]): 1.54 µM; inhibition (Speckle-type POZ protein [4]): Active; inhibition (Speckle-type POZ protein [5]): Active; Activity (786-0 [6]): Active; Activity (HK-2): Non-Toxic; inhibition (OS-RC-2): Active; inhibition (786-0 [7]): Active; inhibition (A498): Active; inhibition (769-P): Active
C=CC1=C(C(=O)O)N2C(=O)[C@@H](NC(=O)c3ccc(COc4ccc(C#N)cc4)o3)[C@H]2SC1 | > 100 | 
C=CC1=C(C(=O)O)N2C(=O)[C@@H](NC(=O)c3ccc(COCc4ccc(Br)cc4Cl)o3)[C@H]2SC1 | 66 | 
O=C(O)C1=C(Cl)CS[C@@H]2[C@H](NC(=O)c3ccc(COc4ccc(Br)cc4Cl)o3)C(=O)N12 | 53.3 | 
C=CC1=C(C(=O)O)N2C(=O)[C@@H](NC(=O)c3cccc(COc4ccc(Br)cc4Cl)c3)[C@H]2SC1 | 30.1 | 
C=CC1=C(C(=O)O)N2C(=O)[C@@H](NC(=O)c3ccc(COc4ccc(Cl)cc4Br)o3)[C@H]2SC1 | > 100 | 
C=CC1=C(C(=O)O)N2C(=O)[C@@H](NC(=O)c3ccc(COc4ccc(Br)cc4)o3)[C@H]2SC1 | > 100 | 
C=CC1=C(C(=O)O)N2C(=O)[C@@H](NC(=O)c3ccc(COCC)o3)[C@H]2SC1 | > 100 | 
O=C(O)C1=C(CO)CS[C@@H]2[C@H](NC(=O)c3ccc(COc4ccc(Br)cc4Cl)o3)C(=O)N12 | > 100 | 
C=CC1=C(C(=O)O)N2C(=O)[C@@H](NC(=O)c3ccc(CO)o3)[C@H]2SC1 | > 100 | 
C=CC1=C(C(=O)O)N2C(=O)[C@@H](NC(=O)c3ccc(Cl)o3)[C@H]2SC1 | > 100 | 
C/C=C/C1=C(C(=O)O)N2C(=O)[C@@H](NC(=O)c3ccc(COc4ccc(Br)cc4Cl)o3)[C@H]2SC1 | 52.6 | 
C=CC1=C(C(=O)O)N2C(=O)[C@@H](NC(=O)c3ccc(COc4ccc(Br)cc4Cl)o3)[C@H]2SC1 | 5.35 | Ratio IC50 (Speckle-type POZ protein [2]): 3
Cc1nnc(SCC2=C(C(=O)O)N3C(=O)[C@@H](NC(=O)c4ccc(COc5ccc(Br)cc5Cl)o4)[C@H]3SC2)s1 | 32.3 | 
C=CC1=C(C(=O)O)N2C(=O)[C@@H](NC(=O)c3ccc(Br)o3)[C@H]2SC1 | > 100 | 

Further lines, with some results ahead:

IC50 (Speckle-type POZ protein [1]) [µM] | Structure (SMILES) | other results
34.6 | Cn1nnnc1SCC1=C(C(=O)O)N2C(=O)[C@@H](NC(=O)c3ccc(COc4ccc(Br)cc4Cl)o3)[C@H]2SC1 | 
> 100 | COCC1=C(C(=O)O)N2C(=O)[C@@H](NC(=O)c3ccc(COc4ccc(Br)cc4Cl)o3)[C@H]2SC1 | 
6.33 | C=CC1=C(C(=O)O)N2C(=O)[C@@H](NC(=O)c3ccc(COc4ccccc4)o3)[C@H]2SC1 | Ratio IC50 (Speckle-type POZ protein [2]): 2
81.2 | C=CC1=C(C(=O)O)N2C(=O)[C@@H](NC(=O)c3ccco3)[C@H]2SC1 | 
> 100 | C=CC1=C(C(=O)O)N2C(=O)[C@@H](NC(=O)c3ccc(CBr)o3)[C@H]2SC1 | 
12.5 | CC(=O)OCC1=C(C(=O)O)N2C(=O)[C@@H](NC(=O)c3ccc(COc4ccc(Br)cc4Cl)o3)[C@H]2SC1 | 
7.03 | C=CC1=C(C(=O)O)N2C(=O)[C@@H](NC(=O)c3ccc(COc4ccc(F)cc4)o3)[C@H]2SC1 | 
> 100 | C=CC1=C(C(=O)O)N2C(=O)[C@@H](NC(=O)c3ccc(COc4c(C)cc(Br)cc4Cl)o3)[C@H]2SC1 | 
11.7 | C=CC1=C(C(=O)O)N2C(=O)[C@@H](NC(=O)c3ccc(COc4ccc(C#N)cc4Cl)o3)[C@H]2SC1 | 
26 | C=CC1=C(C(=O)O)N2C(=O)[C@@H](NC(=O)c3ccc(COC)o3)[C@H]2SC1 | 
52.1 | C=CC1=C(C(=O)O)N2C(=O)[C@@H](NC(=O)c3ccc(C(=O)Nc4ccc(Br)cc4Cl)o3)[C@H]2SC1 | 
> 100 | C=CC1=C(C(=O)O)N2C(=O)[C@@H](NC(=O)c3ccc(CNc4ccc(Br)cc4Cl)o3)[C@H]2SC1 | 
> 100 | C=CC1=C(C(=O)O)N2C(=O)[C@@H](NC(=O)c3ccc(COc4cccc(Cl)c4)o3)[C@H]2SC1 | 
15.1 | C=CC1=C(C(=O)O)N2C(=O)[C@@H](NC(=O)c3ccc(COc4ccc(Br)cc4Cl)s3)[C@H]2SC1 | 
20.7 | C=CC1=C(C(=O)O)N2C(=O)[C@@H](NC(=O)c3ccc(C)o3)[C@H]2SC1 | 
20.5 | CC1(C)S[C@@H]2[C@H](NC(=O)c3ccc(COc4ccc(Br)cc4Cl)o3)C(=O)N2[C@H]1C(=O)O | 
20.9 | C=CC1=C(C(=O)O)N2C(=O)[C@@H](NC(=O)c3ccc(CF)o3)[C@H]2SC1 | 
> 100 | C[C@H]1[C@H](NC(=O)c2ccc(COc3ccc(Br)cc3Cl)o2)C(=O)N1S(=O)(=O)O | 
98 | C=CC1=C(C(=O)O)N2C(=O)[C@@H](NC(=O)c3ccc(COc4ccc(F)cc4Cl)o3)[C@H]2SC1 | 
> 100 | C=CC1=C(C(=O)O)N2C(=O)[C@@H](NC(=O)c3ccc(COc4ccccc4Cl)o3)[C@H]2SC1 | 
> 100 | C=CC1=C(C(=O)O)N2C(=O)[C@@H](NC(=O)c3ccc(C(=O)OC)o3)[C@H]2SC1 | 
